# Measured values as given in patent publication US20250019379A1, “NEW CRYSTAL FORM OF COMPOUND, AND PREPARATION METHOD THEREFOR AND USE THEREOF” (E-nitiate Biopharmaceuticals (Hangzhou) Co., Ltd, priority 2021, published 2025).
# “And” between values parts separate entries of the source, which are not always exact repeats. Equal entries are not always repeated. Marks after values point to notes of the source that are not given here.
# Test system: psoriasis animal model
# Assay: Psoriasis animal model (imiquimod cream induced)
# Format: in vivo, C57/BL 6J mice
# Conditions: for Inhibition rate of skin thickening: 7th day of treatment
# Excerpt: C57/BL 6J mice, 75, female, 7-8 weeks old, weight 18 g-20 g. The animals were from Zhejiang Weitong Lihua Experimental Animal Technology Co., Ltd. (SCXK (Zhejiang) 2019-0001), experimental animal production certificate number 20210107Abzz0619000247; experimental animal use license number: SYXK (Shanghai) 2020-0001 (Via Biotechnology (Shanghai Co., Ltd).
# Modeling and administration method: Use depilatory cream to remove hair from an area of about 2 cm×3 cm on the back of each animal. Control the application time of depilatory cream within 2 minutes. Wash the depilated area with warm water, wash off the depilatory agent, and use immediately. Dry the animal's hair with a hair dryer, and place the animal on a constant-temperature electric blanket at 37° C. for 1 h-2 h. After the animal moves freely, it is placed in a cage for normal rearing and recovery for 1 day (if any animal has red, swollen and damaged skin after hair removal, remove it). On the second day, 54 animals with normal skin were selected and randomly grouped according to body weight, with 9 animals in each group, a total of 6 groups. Each animal in the G2-G6 group was evenly applied with 60 mg (60 μL) of 5 wt % imiquimod cream (Aldara) on the back every day for seven consecutive days.
# Skin thickness (double-layer): Use a vernier caliper to measure the double-layer thickness of the back skin before drug administration and modeling, and on days 1, 3, 5, and 7 after drug administration.
# PASI score: The condition score refers to the clinical PASI scoring standard, and scores three indicators: erythema, scale, and thickness. The total score is 12 points. The scoring standards are as follows:
# Erythema: 0 points, none; 1 points, slight: light red; 2 points, moderate: red; 3 points, significant: dark red; 4 points, very obvious: extremely deep red.
# Scaling: 0 points, none; 1 point, slight: there are scales on part of the epidermis, mainly fine scales; 2 points, moderate: most of the skin surface is completely or incompletely covered with scales, in a flaky form; 3 points, Significant: almost all skin is covered with scales, and the scales are thick and layered; 4 points, very obvious: all the skin is covered with scales, and the scales are thick and layered.
# Plaque thickening degree: 0 points, none: flush with normal skin; 1 points, slight: slightly higher than the skin surface: 2 points, moderate: moderately raised, with round or sloped plaque edges; 3 points, obvious Score: The plaque is hypertrophic and the bulge is obvious; 4 points, very significant: it is highly thickened and the bulge is very obvious.
# Skin proliferation inhibition rate (%)=1−[(skin thickness of the treatment group on the 7th day−skin thickness of the blank control group on the 7th day)/skin thickness of the negative control group on the 7th day−skin thickness of the blank control group on the 7th day)]%.
# All data are expressed as Mean t SEM. The statistical analysis software SPSS23.0 was used to conduct normal distribution and homogeneity of variance tests on the data. Based on the results, the single-factor analysis of variance method was selected and the homogeneity of variance test was selected based on the results. *P<0.05 will be considered a statistically significant difference.
# [1] = 0.5 mg/kg oral twice a day, Day 0
# [2] = 0.5 mg/kg oral twice a day, Day 1
# [3] = 0.5 mg/kg oral twice a day, Day 3
# [4] = 0.5 mg/kg oral twice a day, Day 5
# [5] = 0.5 mg/kg oral twice a day, Day 7
# [6] = 1.5 mg/kg oral twice a day, Day 0
# [7] = 1.5 mg/kg oral twice a day, Day 1
# [8] = 1.5 mg/kg oral twice a day, Day 3
# [9] = 1.5 mg/kg oral twice a day, Day 5
# [10] = 1.5 mg/kg oral twice a day, Day 7
# [11] = 1.5 mg/kg oral twice a day, Day 7, listed as crystalline form A
# [12] = 5 mg/kg oral twice a day, Day 0
# [13] = 5 mg/kg oral twice a day, Day 1
# [14] = 5 mg/kg oral twice a day, Day 3
# [15] = 5 mg/kg oral twice a day, Day 5
# [16] = 5 mg/kg oral twice a day, Day 7
# [17] = 5 mg/kg oral twice a day, Day 7, listed as crystalline form A
smiles,measurement,setting,value
"C[C@@H](O)c1nc2cnc3[nH]ccc3c2n1N1CCC(CC#N)CC1 [Crystalline form A, (R)-2-(1-(2-(1-hydroxyethyl)imidazo[4,5-d]pyrrolo[2,3-b]pyridine-1(6H)-yl)piperidin-4-yl)acetonitrile]",Inhibition rate of skin thickening,0.5 mg/kg oral twice a day,34.6%
same,Average skin thickness (double layer),[1],0.50 ± 0.01 mm
same,PASI score,[1],0.0 points
same,Average skin thickness (double layer),[2],0.60 ± 0.01 mm
same,PASI score,[2],0.0 points
same,Average skin thickness (double layer),[3],1.57 ± 0.11 mm
same,PASI score,[3],6.6 ± 0.69 points
same,Average skin thickness (double layer),[4],1.27 ± 0.1*** mm
same,PASI score,[4],5.9 ± 0.79** points
same,Average skin thickness (double layer),[5],1.32 ± 0.09 mm and 1.32 mm
same,PASI score,[5],6.1 ± 0.56*** points
same,PASI score,"0.5 mg/kg oral twice a day, Day 7, listed as crystalline form A",6.1 points
same,Inhibition rate of skin thickening,1.5 mg/kg oral twice a day,56.4%
same,Inhibition rate of skin thickening,"1.5 mg/kg oral twice a day, listed as crystalline form A",56.4%
same,Average skin thickness (double layer),[6],0.50 ± 0.01 mm
same,PASI score,[6],0.0 points
same,Average skin thickness (double layer),[7],0.61 ± 0.02 mm
same,PASI score,[7],0.0 points
same,Average skin thickness (double layer),[8],1.76 ± 0.15 mm
same,PASI score,[8],6.1 ± 0.56 points
same,Average skin thickness (double layer),[9],1.53 ± 0.08** mm
same,PASI score,[9],7.0 ± 0.53 points
same,Average skin thickness (double layer),[10],1.15 ± 0.04** mm and 1.15 mm
same,PASI score,[10],4.9 ± 0.39*** points
same,Average skin thickness (double layer),[11],1.15 mm
same,PASI score,[11],4.9 points
same,Inhibition rate of skin thickening,5 mg/kg oral twice a day,71.8%
same,Inhibition rate of skin thickening,"5 mg/kg oral twice a day, listed as crystalline form A",71.8%
same,Average skin thickness (double layer),[12],0.50 ± 0.01 mm
same,PASI score,[12],0.0 points
same,Average skin thickness (double layer),[13],0.64 ± 0.01 mm
same,PASI score,[13],0.0 points
same,Average skin thickness (double layer),[14],1.35 ± 0.10* mm
same,PASI score,[14],4.9 ± 0.48 points
same,Average skin thickness (double layer),[15],1.24 ± 0.11*** mm
same,PASI score,[15],4.7 ± 0.58*** points
same,Average skin thickness (double layer),[16],1.03 ± 0.03*** mm and 1.03 mm
same,PASI score,[16],3.6 ± 0.44*** points
same,Average skin thickness (double layer),[17],1.03 mm
same,PASI score,[17],3.6 points
